From patent US20160166556A1, “METHODS OF TREATING PULMONARY HYPERTENSION” (Gilead Sciences, Inc., priority 2014, published 2016) come the findings set out here.

For the assay, the system named is ASK1 pathway (p38 phosphorylation) in the rat RV. Briefly: Auranofin model of oxidative stress-induced ASK1 activation in the rat right ventricle (phospho-p38 Western blot). Type of assay: in vivo, Sprague-Dawley rats. The text has this:
IP90 was used as a loading control.
In this study, the auranofin model of oxidative stress-induced ASK1 activation was used to determine the effects of ASK1 inhibitor in preventing or inhibiting oxidative stress-induced activation of the ASK1 pathway in the rat RV. ASK1 is normally bound and repressed by the thiol-containing antioxidant protein thioredoxin 1 (Trx1). […] When administered in vivo, auranofin results in ASK1-mediated phosphorylation of p38MAPK, which in turn promotes induction of cytokine/chemokine gene expression.
Rats were then challenged with a single intraperitoneal (ip) injection of auranofin at 30 mg/kg to induce oxidative stress. The levels of phosphorylated p38 in RV lysates were evaluated by Western blot analysis and normalized to IP90.
(A western blot detects proteins with antibodies after separation by electrophoresis.)

Consider `Cc1cc(F)c(C(=O)Nc2cccc(-c3nncn3C(C)C)n2)cc1-n1cnc(C2CC2)c1` [Compound 3, 5-(4-cyclopropyl-1H-imidazol-1-yl)-2-fluoro-N-(6-(4-isopropyl-4H-1,2,4-triazol-3-yl)pyridin-2-yl)-4-methylbenzamide], for which the “auranofin-induced p38 phosphorylation in RV” value (single oral dose 0.3, 1, 3 or 10 mg/kg, then auranofin 30 mg/kg ip) is reported as “dose-dependent reduction”. As for `CC[PH](CC)(CC)[Au][S][C@@H]1O[C@H](COC(C)=O)[C@@H](OC(C)=O)[C@H](OC(C)=O)[C@H]1OC(C)=O` [auranofin, 2,3,4,6-tetra-O-acetyl-1-thio-β-d-glucopyranosato-S-(triethylphosphine) gold], the “normalized level of phosphorylated p38 in RV (p-p38/IP90)” value (auranofin 30 mg/kg ip alone, mean±SEM, vehicle group 1.0±0.1) came to 2.0±0.2.
